Results: patent US5637583A, “Aminocyclohexylesters and uses thereof” (University of British Columbia, priority 1994, dated 1997)
Where a name gives a salt, the structure may show the parent alone.

What was measured:
[1] = test system: phrenic nerve diaphragm; experiment: Nerve conduction blockade in vitro, phrenic nerve diaphragm; conditions: Rattus norvegicus; phrenic nerve diaphragm, in vitro; read-out: concentration at which the twitch response from electrical stimulation is reduced to 50% of control value
Method: In order to establish the potency of the compounds to block nerve conduction, two in vitro assays were used. The first was the phrenic nerve diaphragm of the rat. […] Nerve blockade in these preparations is indicative of local anesthetic activity. Compounds were administered to the bath solution in increasing concentrations while the preparations were being stimulated with regular electrical impulses.

[2] = test system: potassium channels; experiment: Electrical stimulation of left ventricle in rats (ERP; ancillary blockade of potassium channels); assay type: in vivo, rat; conditions: infusion rate for 25% increase from control; anesthetized rats
Text: Two silver stimulating electrodes were inserted through the chest wall and implanted in the left ventricle. Square wave stimulation was used to determine threshold current for capture, ventricular fibrillation threshold current, and effective refractory period (Howard, P. G. and Walker, M. J. A., Proc. West. Pharmacol. Soc. 33:123-127 (1990)). […] The threshold current for capture is represented by "iT". The fibrillation threshold current is represented by "VFT". The effective refracting period is represented by "ERP".

[3] = molecular target: T1, cardiac sodium channel (Rattus norvegicus, UniProt P15389); experiment: Electrical stimulation of left ventricle in rats (iT, VFT; cardiac sodium channel blockade); assay type: in vivo; conditions: infusion rate for 25% increase from control; anesthetized rats
Method: Rats were prepared according to the preceding procedure. Two silver stimulating electrodes were inserted through the chest wall and implanted in the left ventricle. Square wave stimulation was used to determine threshold current for capture, ventricular fibrillation threshold current, and effective refractory period (Howard, P. G. and Walker, M. J. A., Proc. West. Pharmacol. Soc. 33:123-127 (1990)). Table 5 contains ED25 values for these indices of cardiac sodium channel blockade, where the ED25 is the infusion rate in micromoles/kg/minute of compound required to elicit a 25% increase from control. The increases in refractoriness indicate ancillary blockade of potassium channels. The threshold current for capture is represented by "iT". The fibrillation threshold current is represented by "VFT". The effective refracting period is represented by "ERP".

[4] = molecular target: T1, cardiac sodium channel; experiment: ECG parameters in anesthetized rats (RSh, PR, QRS; cardiac sodium channel blockade); assay type: in vivo; conditions: i.v. bolus
Method: Rats weighing 200-250 gms were used in this example. Animals were anesthetized with 60 mg/kg pentobarbitone i.p. The carotid artery and jugular vein were cannulated for measurement of blood pressure and drug injection, respectively. ECG was recorded by insertion of electrodes placed along the anatomical axis of the heart. All compounds were given as bolus injections.
Various ECG parameters were measured. The most sensitive of these for measuring sodium channel blockade is RSh (J. Pharmacology Methods 27:51-58 (1992)). Table 4 describes the results of the tests as ED25 (micromoles/kg) which are the doses required to produce a 25% increase in the parameter measured (ne=not estimated). The increases in P-R interval, QRS interval and RSh indicate cardiac sodium channel blockade while the increase in Q-T interval indicates ancillary cardiac potassium channel blockade which is the property of a type 1 a antiarrhythmic.

[5] = molecular target: T1, cardiac sodium channel; experiment: Whole cell voltage clamp tests, single isolated adult rat cardiac cells; assay type: cell-based; conditions: whole cell voltage clamp, isolated adult rat cardiac cells; read-out: EC50 (concentration required to produce a 50% reduction in sodium current)
Method: In order to directly measure cardiac sodium channel blockade, standard whole cell voltage clamp tests were carried out using single isolated adult rat cardiac cells. Results in the form of EC50 values, which are micromolar concentrations required to produce a 50% reduction in sodium current, are presented in Table 6.

[6] = test system: cardiac potassium channel; experiment: ECG parameters in anesthetized rats (QT; ancillary cardiac potassium channel blockade); assay type: in vivo, rat; conditions: i.v. bolus, Q-T interval
Method: Various ECG parameters were measured. […] The increases in P-R interval, QRS interval and RSh indicate cardiac sodium channel blockade while the increase in Q-T interval indicates ancillary cardiac potassium channel blockade which is the property of a type 1 a antiarrhythmic.

[7] = test system: conscious rats subject to coronary artery occlusion; experiment: Antiarrhythmic efficacy: incidence of cardiac arrhythmias in conscious rats subject to coronary artery occlusion; assay type: in vivo, rat; conditions: score 0-9 per Table 2, 30 min after occlusion
Method: Antiarrhythmic efficacy was assessed by investigating the effect of a compound on the incidence of cardiac arrhythmias in conscious rats subject to coronary artery occlusion. Rats weighing 200-300 gms were subjected to preparative surgery and assigned to groups in a random block design. In each case, the animal was anesthetized with halothane during surgical preparation. The left femoral artery was cannulated for measurement of mean arterial blood pressure and withdrawal of blood samples. The left femoral vein was also cannulated for injection of drugs. The thoracic cavity was opened and a polyethylene occluder loosely placed around the left anterior descending coronary artery. The thoracic cavity was then closed. ECG was recorded by insertion of electrodes placed along the anatomical axis of the heart. All cannulae and electrode leads were exteriorized in the mid scapular region. In random and double-blind manner, about 0.5 to 2 hours post-surgery, an infusion of vehicle, or the compound to be tested was given. After 15 minutes infusion, the occluder was pulled so as to produce coronary artery occlusion. ECG, arrhythmias, blood pressure, heart rate and mortality were monitored for 30 minutes after occlusion. Arrhythmias were recorded as ventricular tachycardia (VT) and ventricular fibrillation (VF) and scored according to Curtis, M. J. and Walker, M. J. A., Cardiovasc.
VPB=ventricular premature beats
VT=ventricular tachycardia
VF=ventricular fibrillation
Occlusion is associated with increases in R-wave height and "S-T" segment elevation; and an occluded zone (measured after death by cardiogreen dye perfusion) in the range of 25%-50% of total left-ventricular weight.

[8] = test system: hypogastric nerve vas deferens; experiment: Nerve conduction blockade in vitro, hypogastric nerve vas deferens; conditions: hypogastric nerve vas deferens, in vitro; read-out: concentration at which the twitch response from electrical stimulation is reduced to 50% of control value
Method: In order to establish the potency of the compounds to block nerve conduction, two in vitro assays were used. The first was the phrenic nerve diaphragm of the rat. The second was the hypogastric nerve vas deferens. Nerve blockade in these preparations is indicative of local anesthetic activity. Compounds were administered to the bath solution in increasing concentrations while the preparations were being stimulated with regular electrical impulses.

[9] = test system: central nervous system of the rat; experiment: Opioid-like effects during in vivo tests
Text: This provides evidence that some of the compounds may have analgesic activity through activation of opioid receptors. Examination of members of this series of compounds by analgesic assays and binding studies show the presence of opioid binding and activity.

T1 sequence (P15389 whole entry, the tested form may be a part): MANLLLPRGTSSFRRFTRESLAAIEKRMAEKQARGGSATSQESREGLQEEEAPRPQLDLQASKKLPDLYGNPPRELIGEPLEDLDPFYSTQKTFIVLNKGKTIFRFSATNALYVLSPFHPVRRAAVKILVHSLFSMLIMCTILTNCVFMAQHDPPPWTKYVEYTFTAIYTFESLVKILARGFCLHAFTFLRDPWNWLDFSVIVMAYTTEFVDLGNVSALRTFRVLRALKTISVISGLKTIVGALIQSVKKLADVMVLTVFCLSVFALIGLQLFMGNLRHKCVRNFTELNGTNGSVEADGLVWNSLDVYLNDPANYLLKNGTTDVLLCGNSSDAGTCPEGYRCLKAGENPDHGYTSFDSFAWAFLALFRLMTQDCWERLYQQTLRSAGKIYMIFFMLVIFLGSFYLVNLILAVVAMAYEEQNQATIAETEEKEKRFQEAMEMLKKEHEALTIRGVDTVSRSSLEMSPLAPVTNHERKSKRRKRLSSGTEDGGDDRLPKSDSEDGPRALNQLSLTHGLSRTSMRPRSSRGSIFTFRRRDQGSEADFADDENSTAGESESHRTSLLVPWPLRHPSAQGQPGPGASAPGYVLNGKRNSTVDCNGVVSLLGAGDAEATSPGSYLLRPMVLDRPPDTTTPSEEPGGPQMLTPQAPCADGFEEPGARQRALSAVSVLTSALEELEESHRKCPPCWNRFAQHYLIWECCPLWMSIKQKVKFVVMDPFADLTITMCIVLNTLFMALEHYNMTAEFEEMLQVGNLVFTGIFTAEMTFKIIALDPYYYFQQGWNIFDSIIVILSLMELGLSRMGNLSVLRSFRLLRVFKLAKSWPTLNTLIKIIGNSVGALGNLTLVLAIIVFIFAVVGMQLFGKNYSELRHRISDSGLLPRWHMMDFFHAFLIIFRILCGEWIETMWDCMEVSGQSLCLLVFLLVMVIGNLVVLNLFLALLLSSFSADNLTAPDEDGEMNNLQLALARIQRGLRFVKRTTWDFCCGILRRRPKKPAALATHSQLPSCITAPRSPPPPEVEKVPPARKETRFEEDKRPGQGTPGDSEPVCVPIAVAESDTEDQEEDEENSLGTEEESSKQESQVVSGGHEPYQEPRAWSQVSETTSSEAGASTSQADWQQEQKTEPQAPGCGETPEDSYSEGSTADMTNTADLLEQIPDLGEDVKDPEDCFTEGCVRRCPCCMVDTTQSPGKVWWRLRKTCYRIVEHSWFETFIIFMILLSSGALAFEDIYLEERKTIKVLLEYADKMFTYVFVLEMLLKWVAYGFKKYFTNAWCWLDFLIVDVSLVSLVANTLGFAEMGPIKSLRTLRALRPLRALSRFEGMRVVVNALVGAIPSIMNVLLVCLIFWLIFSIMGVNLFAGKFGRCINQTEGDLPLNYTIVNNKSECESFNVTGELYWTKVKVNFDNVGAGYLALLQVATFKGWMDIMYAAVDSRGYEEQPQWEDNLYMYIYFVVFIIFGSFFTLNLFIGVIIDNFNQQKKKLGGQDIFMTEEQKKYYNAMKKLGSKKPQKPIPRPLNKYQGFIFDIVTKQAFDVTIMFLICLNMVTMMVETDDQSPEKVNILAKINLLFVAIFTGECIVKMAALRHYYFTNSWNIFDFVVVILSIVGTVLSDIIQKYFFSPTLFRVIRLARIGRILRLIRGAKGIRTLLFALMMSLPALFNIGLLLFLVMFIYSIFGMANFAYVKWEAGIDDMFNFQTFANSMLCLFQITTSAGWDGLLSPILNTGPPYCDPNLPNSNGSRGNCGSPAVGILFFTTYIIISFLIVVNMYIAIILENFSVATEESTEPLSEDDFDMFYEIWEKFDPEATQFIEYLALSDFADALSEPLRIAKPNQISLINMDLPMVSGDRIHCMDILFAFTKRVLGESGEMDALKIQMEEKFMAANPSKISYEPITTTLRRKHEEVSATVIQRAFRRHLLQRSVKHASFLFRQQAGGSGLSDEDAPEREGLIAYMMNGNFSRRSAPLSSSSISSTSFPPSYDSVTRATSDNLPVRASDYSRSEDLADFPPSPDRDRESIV

SMILES	IC50 [1] [µM]	ED25 ERP (effective refractory period) [2] [µmol/kg/min]	ED25 VFT (fibrillation threshold current) [3] [µmol/kg/min]	ED25 iT (threshold current for capture) [3] [µmol/kg/min]	ED25 RSh (dose required to produce a 25% increase) [4] [µmol/kg]	EC50 [5] [µM]	ED25 QT (dose required to produce a 25% increase) [6] [µmol/kg]	AS (arrhythmia score) ([7]; dose 5 micromoles/kg/min infusion)	IC50 [8] [µM]	opioid-like effects on the central nervous system [9]	ED25 PR (dose required to produce a 25% increase) ([4]; P-R interval) [µmol/kg]	AS (arrhythmia score) ([7]; dose 20 micromoles/kg/min infusion)
Cl.O=C(Cc1csc2ccccc12)O[C@@H]1CCCC[C@H]1N1CCOCC1 (racemic) [Compound #6, (±)-trans-[2-(4-morpholinyl)cyclohexyl]benzo[b]thiophene-3-acetate monohydrochloride]	30	7	9	12	100	150	79	1.8	100	induced opioid-like effects on the central nervous system of the rat	–	–
O=C(COc1cccc2ccccc12)O[C@@H]1CCCC[C@H]1N1CCCC1 (relative stereo) [Compound #2, (±)-trans-[2-(1-pyrrolidinyl)cyclohexyl](1-naphthoxy)acetate monohydrochloride]	120	3	2	5	11	50	53	–	25	–	23	4
